Results reported in the NIST ThermoML archive (doi:10.1021/je101180r).
Numbers after ± are expanded uncertainties.

Conditions: Liquid, Ebulliometric method (Recirculating still)

SMILES | vapor or sublimation pressure (402.57 K) [kPa] | vapor or sublimation pressure (413.74 K) [kPa] | vapor or sublimation pressure (373.7 K) [kPa] | vapor or sublimation pressure (384.96 K) [kPa]
Cc1cccnc1N [2-amino-3-methylpyridine] | 5.158 ± 0.11 | 8.041 ± 0.18 | – | –
CN(C)c1ccccc1 [N,N-dimethylaniline] | – | – | 5.158 ± 0.11 | 8.041 ± 0.18
